Experimental data as given in patent publication US5349070A, “Salicylic acid-maltol conjugates” (priority 1993, dated 1994).

Legend:
[1] = Bleeding time; assay type: in vivo; details: for Bleeding Time: in s (unit assumed); for percent increment of bleeding time: P < 0.05
Method: To the experimental groups, equivalent doses of compound A and aspirin were administered separately for 10 days.

[2] = background statement; cited from earlier work
[3] = Gastric ulceration experiment; assay type: in vivo, rat (male Sprague Dawley); details: for Ulcer Index: mean ± S.E.; for gastric ulceration: compound A versus aspirin at four times lower dose
Method: Animal: Male Sprague Dawley rats weighing 160-210 g (6 rats as a group).
Reference: Aspirin (200 mg/kg in 1% CMC).
(§1) Medication: Oral administration.
Rats were deprived of food but allowed free access to water for 24 hrs (water was removed 2 hrs before experiments). Samples suspended in 1% CMC solution […]. The stomachs were then inflated by injecting 10 ml of 2% formalin through the esophageal orifice and immersed in 2% formalin for 10 min. Subsequently, the stomachs were incised along the greater curvature and the length of each leison in the glandular portion was measured. The sum of the lengths (mm) of all lesions for each rat was used as the ulcer index.

[4] = tested on: Malondialdehyde (MDA) Generation in Mouse Liver Homogenate; assay: Inhibition of malondialdehyde (MDA) generation (antioxidant activity), in vitro; assay type: biochemical, mouse (male ICR)
Method: Animal: male ICR mouse weighing 20-25 g
1. Maltol (10% DMF saline)
2. Aspirin (10% DMF saline).
TBA reagents: Thiobarbituric acid (0.3%) and SDS (0.4%) were dissolved in 7.5% acetate buffer (pH 4.0)
Antioxidant activities were determined following the method of Okawa et al. (Biochemistry (Japan) 1977), 49(8), 829). Mouse livers were homogenized with ten volumes of saline. To 10 ml of homogenate was added 10 ml of the sample solution, and the mixture was incubated at 37° C. for 3 hrs. Then 3.6 ml of TBA reagents were added to the mixture and the resulting mixture was heated at 98° C. for 1 hr. After the temperature was reduced to 24° C., the reaction mixture was extracted with 2 ml of butanol and the butanol phase was separated by centrifugation. The absorbance at 532 nm of the butanol phase was measured.

[5] = tested on: BSA; assay: Protein stabilizing activity (heat denaturation of BSA); assay type: biochemical; details: 1×10^-3 M in 5% DMF; data not shown
Method: Sample: Compound A (1×10^-3 M in 5% DMF solution
The protein stabilizng activity of the sample was analyzed as described by Mizushima (Mizushima, Y. (1965), Lancet, 1, 169). Briefly, 2 ml of 0.75% BSA in 0.1M phosphate-buffered saline (pH 5.3) was mixed with 1 ml of appropriately diluted test sample solution. After standing at room temperature for 15 min, the reaction mixture was incubated at 66.5°C. and 0° C. for 3 min and 15 min, respectively. The degree of heat denaturation of BSA was estimated by the turbidity of colloidal precipitate, whose absorbance at 570 nm was measured.

[6] = tested on: Typhoid vaccine pyrogen; assay: Antipyretic activity (typhoid vaccine pyrogen, rectal temperature); assay type: in vivo, mouse (male ICR); details: oral, mouse, FIG. 3; compound A 160, 500 mg/kg, aspirin 100 mg/kg
Method: Animal: Male ICR mouse weighing 17-21 g (5 mice as a group).
Sample: Compound A (160 mg/kg, 500 mg/kg in 1% CMC).
Reference: Aspirin (100 mg/kg in 1% CMC).
Pyrogen: Typhoid vaccine (0.1 ml/mouse, i.p.).
Antipyretic activities were measured according to Winter et al. with some modifications (Winter, C. A. et al. (1963), J. Pharmacol Exptl. Therap., 141, […]). Rectal temperature was measured using digitalized thermometer inserted 3 cm deep at one hr intervals. Typhoid vaccine was injected to mouse i.p. at zero time. After 2 hrs, aspirin and sample (compound in Example 1) were orally given to mouse.

[7] = General activities and side effects stated in the description; details: concluding statement
[8] = Acute toxicity test; assay type: in vivo; details: oral, mouse
[9] = tested on: platelets; assay: Antithrombotic activity (thrombin-induced platelet aggregation); assay type: cell-based, rat (male Sprague Dawley); details: 1×10^-3 M
Method: Animal: Male Sprague Dawley rate weighing 180-250 g.
Sample: Compound A (1×10^-3 M) in 5% DMF solution.
Rats were anaesthetized with ether and 9 volumes of blood were collected by heart puncture with 1 volume of 3.12% sodium citrate. Combined blood samples were centrifuged at 1,200 rpm for 20 min at 4° C. to obtain platelet-rich plasma. Following centrifugation at 3,000 rpm for 10 min at 4° C., the resulting precipitates (platelets) were resuspended in 0.01M phosphate-buffered saline (pH 7.4). To 1 ml of this solution was added 0.1 ml of the sample solution. After 30 min incubation at 37° C., 10 units of thrombin was added and the reaction mixture was incubated for 1 hr.

[10] = tested on: Carrageenin-induced edema; assay: Antiinflammatory activity by Carrageenin-induced edema test; assay type: in vivo, rat (male Sprague Dawley); details: for % Increment of Edema: mean ± S.E.
Method: Animal: Male Sprague Dawley rats weighing approx. 170 g (5 rats as a group). […]
as §1
The inhibitions of Carrageenin-induced edema by compound A and aspirin was measured according to Winster et al. (Winter, C. A., Risley, E. A. and Nuss, G. W. (1963), J: Pharmaco. Exptl. Therap., 141, 369). Samples were administered orally at 6 hrs and 30 min before Carrageenin injection. Edema was induced with subcutaneous injection of 0.05 ml of 1% Carrageenin in saline solution in a hind paw of rat. Then, the volume of edema was measured at time intervals.

[11] = final concentration 2.5 × 10^-3 M
[12] = final concentration 2.5 × 10^-4 M
[13] = final concentration 6.3 × 10^-5 M
[14] = final concentration 1.3 × 10^-5 M

CC(=O)Oc1ccccc1C(=O)O [Aspirin, Acetylsalicylic acid, reference compound]
Bleeding Time ([1]; 15 mg/kg P.O., day 2): 353.5 ± 74.7 | Bleeding Time ([1]; 15 mg/kg P.O., day 4): 372.7 ± 50.1 | Bleeding Time ([1]; 15 mg/kg P.O., day 6): 516.6 ± 119.4 | Bleeding Time ([1]; 15 mg/kg P.O., day 8): 493.6 ± 86.6 | Bleeding Time ([1]; 15 mg/kg P.O., day 10): 441.9 ± 46.2 | gastric ulceration induced by aspirin [2]: induces gastric ulceration | pharmacological activities of aspirin [2]: antipyretic, antianalgesic, antioxidant and antithromobotic activities | number of rats that exhibited gastric ulcer ([3]; 200 mg/kg P.O.): 5/5 | Ulcer Index ([3]; 200 mg/kg P.O.): 29.3 ± 6.15 mm | gastric ulceration [3]: caused ulceration | % Inhibition of Malondialdehyde (MDA) Generation [4, 11]: 8.4 ± 4.2% | % Inhibition of Malondialdehyde (MDA) Generation [4, 12]: 0.8 ± 0.4% | % Inhibition of Malondialdehyde (MDA) Generation [4, 13]: 4.6 ± 2.3%

CC(=O)Oc1ccccc1C(=O)Oc1c(C)occc1=O [Compound A, maltol-acetylsalicylate ester]
Bleeding Time ([1]; 15 mg/kg P.O., day 2): 339.6 ± 53.9 | Bleeding Time ([1]; 15 mg/kg P.O., day 4): 396.9 ± 56.0 | Bleeding Time ([1]; 15 mg/kg P.O., day 6): 429.4 ± 50.6 | Bleeding Time ([1]; 15 mg/kg P.O., day 8): 518.3 ± 102.8 | percent increment of bleeding time ([1]; 15 mg/kg P.O., day 10): 50% | Bleeding Time ([1]; 15 mg/kg P.O., day 10): 472.1 ± 57.4 | percent increment of bleeding time ([1]; 45 mg/kg P.O., day 10): 48% | Bleeding Time ([1]; 45 mg/kg P.O., day 10): 467.8 ± 55.9 | prolongation of the bleeding time ([1]; administered for 10 days): 50% | protein stabilizing activity [5]: did not contain protein stabilizing activity | antipyretic potency compared to aspirin [6]: five times lower than that of aspirin | side effects [7]: little side effects | LD50 ([8]; in vivo): 2140 mg/kg | toxicity [8]: little toxicity | Ulcer Index ([3]; 100 mg/kg P.O.): 0 mm | Ulcer Index ([3]; 200 mg/kg P.O.): 0 mm | number of rats that exhibited gastric ulcer ([3]; 800 mg/kg P.O.): 1/6 | Ulcer Index ([3]; 800 mg/kg P.O.): 0.7 ± 0.61 mm | gastric ulcer ([3]; at 5 times higher dose than aspirin): did not cause gastric ulcer | gastric ulceration [3]: did not cause gastric ulceration | % Inhibition of Malondialdehyde (MDA) Generation [4, 14]: 4.3 ± 2.1% | % Inhibition of Malondialdehyde (MDA) Generation [4, 11]: 91.9 ± 4.1% | % Inhibition of Malondialdehyde (MDA) Generation [4, 12]: 58.9 ± 7.0% | % Inhibition of Malondialdehyde (MDA) Generation [4, 13]: 2.3 ± 1.1% | antithrombotic activity [9]: showed antithrombotic activity | platelet aggregation ([9]; 10 units thrombin, naked eye, 1 hr): platelet aggregation was not observed | % Increment of Edema ([10]; 300 mg/kg P.O., 0.5 hr): 46.5 ± 13.98% | % Increment of Edema ([10]; 300 mg/kg P.O., 1.5 hr): 51.2 ± 9.47% | % Increment of Edema ([10]; 300 mg/kg P.O., 2.5 hr): 56.1 ± 11.50% | % Increment of Edema ([10]; 300 mg/kg P.O., 3.5 hr): 69.4 ± 13.89% | % Increment of Edema ([10]; 300 mg/kg P.O., 4.5 hr): 81.9 ± 9.96% | % Increment of Edema ([10]; 400 mg/kg P.O., 0.5 hr): 20.3 ± 6.85% | % Increment of Edema ([10]; 400 mg/kg P.O., 1.5 hr): 33.8 ± 3.19% | % Increment of Edema ([10]; 400 mg/kg P.O., 2.5 hr): 50.2 ± 6.43% | % Increment of Edema ([10]; 400 mg/kg P.O., 3.5 hr): 58.4 ± 6.09% | % Increment of Edema ([10]; 400 mg/kg P.O., 4.5 hr): 66.2 ± 8.52% | anti-inflammatory effect ([10]; doses of 300 and 450 mg/kg, oral): no anti-inflammatory effect

Cc1occc(=O)c1O [Maltol, maltol]
% Inhibition of Malondialdehyde (MDA) Generation [4, 14]: 5.2 ± 2.6% | % Inhibition of Malondialdehyde (MDA) Generation [4, 11]: 99.4 ± 0.3% | % Inhibition of Malondialdehyde (MDA) Generation [4, 12]: 94.8 ± 2.6% | % Inhibition of Malondialdehyde (MDA) Generation [4, 13]: 13.4 ± 6.7%

CCCCC1C(=O)N(c2ccccc2)N(c2ccccc2)C1=O [Phenylbutazone, reference compound]
% Increment of Edema ([10]; 100 mg/kg P.O., 0.5 hr): 11.8 ± 6.26% | % Increment of Edema ([10]; 100 mg/kg P.O., 1.5 hr): 20.9 ± 6.88% | % Increment of Edema ([10]; 100 mg/kg P.O., 2.5 hr): 21.9 ± 9.22% | % Increment of Edema ([10]; 100 mg/kg P.O., 3.5 hr): 36.2 ± 14.45%
